Each structure is given as a SMILES string. Read-outs that look alike come from different tables or passages of the source.

Data on three molecules can be found in patent US20260174875A1 (Novo Nordisk A/S, priority 2023, published 2026).

What all share (type): cell-based
Assay [1] concerns the target T1, human GLP-1 receptor (hGLP-1R) (Homo sapiens, UniProt P43220).
T1 construct: expressed in transfected cells
The assay is described as follows: GLP-1 receptor assay, method B (CRE-luciferase reporter, BHK cells, 384-well).

The target of assay [2] is T2, human GIP receptor (hGIPR) (Homo sapiens, UniProt P48546).
T2 construct: expressed in transfected cells
T2 sequence (P48546 22-466): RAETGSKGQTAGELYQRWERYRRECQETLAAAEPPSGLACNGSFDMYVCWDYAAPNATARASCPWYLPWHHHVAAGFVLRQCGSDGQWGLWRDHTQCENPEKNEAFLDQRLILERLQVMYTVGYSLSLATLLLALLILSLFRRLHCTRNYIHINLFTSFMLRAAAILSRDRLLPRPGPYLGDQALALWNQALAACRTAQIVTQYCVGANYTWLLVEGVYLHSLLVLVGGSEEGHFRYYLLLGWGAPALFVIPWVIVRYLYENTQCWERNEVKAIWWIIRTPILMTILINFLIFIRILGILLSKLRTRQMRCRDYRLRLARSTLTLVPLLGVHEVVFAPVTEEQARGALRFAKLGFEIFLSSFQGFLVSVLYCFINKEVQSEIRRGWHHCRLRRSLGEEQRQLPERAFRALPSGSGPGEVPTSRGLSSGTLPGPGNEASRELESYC
The assay is described as follows: GIP receptor assay, method B (CRE-luciferase reporter, BHK cells, 384-well).

The target in assay [3] is T3, human amylin receptor (hAMYR3) (Homo sapiens, UniProt O60896+P30988).
T3 construct: host or cells: BHK cells (Hollex-1 line expressing hCTR(a) and CRE-Luc), further transfected with human RAMP3
The assay is described as follows: Amylin receptor assay, method B (CRE-luciferase reporter, BHK cells). The protocol:
To assess how the activation of the receptors is potentially influenced by the presence of human serum albumin (HSA), the in vitro assays were performed in the absence of HSA and presence of 1% (w/v) HSA.
It is thus possible to measure hAMYR3 activity using a CRE-luciferase reporter gene introduced into Baby Hamster Kidney (BHK) cells co-expressing the hAMYR3.
The cell line was further transfected with human receptor modifying protein 3 (RAMP3) using standard methods.
After centrifugation, the cell pellet was resuspended and diluted to approximately 2.5-4.0×10^6 (2.5E+6 to 4.0E+6) cells/mL in Recovery™ Cell Culture Freezing Medium (Gibco, 12648-010). Cells were aliquoted and stored at −180° C. until use.
The assay buffer consisted of DMEM without phenol red (Gibco, 11880-028) supplemented with 1× GlutaMAX (Gibco, 35050-038), 10 mM HEPES (Gibco, 15630-056) and 1% (w/v) ovalbumin (Sigma, A5503) either with or without 0.1% (v/v) Pluronic F-68 (Gibco, 24040-032) and either with or without HSA (Sigma, A9511).
To perform the assay, hAMYR3 BHK Cre-Luc cells were thawed, washed once in PBS (Gibco 14190-094) and seeded in 40 μL growth medium in a white 384-well culture plate (PerkinElmer/Revvity, 6007688) at a cell density of 4.0×10^3 (4.0E+3) cells/well the day before the experiment. The plate was incubated over night at 37° C. in 5% CO2. […] Serial dilutions were then mixed in a new 96-well plate with equal volume (1:1:1 ratio) of assay buffer and either assay buffer without or with 3% HSA (Sigma, A-9511). Twenty microliters of the solution mix were transferred to the cells which previously were washed once with PBS (Gibco 14190-094). After a short centrifugation, the assay plates were incubated for 3 hours at 37° C. in 5% CO2 and let to equilibrated at room temperature for 10 minutes before the addition of 30 μL steadylite Plus™ PerkinElmer/Revvity, 6066759) per well. Plates were sealed and incubated at room temperature with gentle shaking for 30 minutes while protected from light. Luminescence was detected on a luminescence plate reader e.g., a Synergy 2 (BioTek).

Where [4] appears, read: hGLP-1R Potency, 1% HSA, EC50, methods B, in the presence of 1% HSA.
Where [5] appears, read: method B, absence of HSA, read-out: hGLP-1R Potency, no HSA, EC50.
Setting [6] is: hGIPR Potency, 1% HSA, EC50, methods B, in the presence of 1% HSA.
Setting [7] is: method B, absence of HSA, read-out: hGIPR Potency, no HSA, EC50.
[8] abbreviates: hAMYR3 Potency, 1% HSA, EC50, methods B, in the presence of 1% HSA.
Where [9] appears, read: method B, absence of HSA, read-out: hAMYR3 Potency, no HSA, EC50.

T1 sequence (P43220 24-463): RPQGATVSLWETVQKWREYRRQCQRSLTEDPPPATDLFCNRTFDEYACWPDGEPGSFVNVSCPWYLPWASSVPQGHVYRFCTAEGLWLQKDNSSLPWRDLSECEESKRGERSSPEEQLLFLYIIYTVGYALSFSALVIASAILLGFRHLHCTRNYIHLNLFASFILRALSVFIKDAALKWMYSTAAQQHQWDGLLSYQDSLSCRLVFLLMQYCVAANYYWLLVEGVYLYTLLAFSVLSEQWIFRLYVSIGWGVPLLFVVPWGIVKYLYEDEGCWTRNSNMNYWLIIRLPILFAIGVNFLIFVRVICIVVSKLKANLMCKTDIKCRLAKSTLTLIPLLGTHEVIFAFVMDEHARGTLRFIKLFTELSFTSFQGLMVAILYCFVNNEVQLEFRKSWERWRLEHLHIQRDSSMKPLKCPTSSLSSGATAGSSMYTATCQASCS
T3 sequence (P30988 25-474): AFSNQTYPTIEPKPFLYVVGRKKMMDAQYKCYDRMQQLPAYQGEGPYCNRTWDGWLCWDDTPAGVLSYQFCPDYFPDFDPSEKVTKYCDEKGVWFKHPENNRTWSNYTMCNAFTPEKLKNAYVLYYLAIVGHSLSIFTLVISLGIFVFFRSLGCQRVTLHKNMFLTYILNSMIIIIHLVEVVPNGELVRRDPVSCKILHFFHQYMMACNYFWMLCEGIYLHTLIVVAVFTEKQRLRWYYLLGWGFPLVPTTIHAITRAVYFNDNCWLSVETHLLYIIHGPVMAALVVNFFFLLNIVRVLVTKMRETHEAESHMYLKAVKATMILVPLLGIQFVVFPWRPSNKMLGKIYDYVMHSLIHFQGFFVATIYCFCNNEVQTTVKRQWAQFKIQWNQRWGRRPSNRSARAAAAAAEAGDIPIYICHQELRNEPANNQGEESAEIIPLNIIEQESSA
T3 sequence (O60896 24-148): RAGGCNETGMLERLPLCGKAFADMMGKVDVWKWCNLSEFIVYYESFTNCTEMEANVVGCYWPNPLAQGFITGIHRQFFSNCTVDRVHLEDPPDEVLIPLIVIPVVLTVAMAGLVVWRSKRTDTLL

Consider `CC[C@H](C)[C@H](NC(=O)[C@H](CCC(=O)O)NC(=O)[C@H](CCC(=O)O)NC(=O)[C@H](CC(C)C)NC(=O)[C@H](CC(C)C)NC(=O)[C@@H](NC(=O)[C@H](CO)NC(=O)[C@H](Cc1ccc(O)cc1)NC(=O)[C@H](CC(=O)O)NC(=O)[C@H](CO)NC(=O)[C@@H](NC(=O)[C@H](Cc1ccccc1)NC(=O)[C@@H](NC(=O)CNC(=O)[C@H](CCC(=O)O)NC(=O)C(C)(C)NC(=O)[C@@H](N)Cc1ccc(O)cc1)[C@@H](C)O)[C@@H](C)O)[C@@H](C)CC)C(=O)N[C@@H](C)C(=O)N[C@@H](C)C(=O)N[C@@H](CCCNC(=N)N)C(=O)N[C@@H](CCC(=O)O)C(=O)N[C@@H](Cc1ccccc1)C(=O)N[C@H](C(=O)N[C@@H](CCC(=O)O)C(=O)N[C@@H](Cc1c[nH]c2ccccc12)C(=O)N[C@@H](CC(C)C)C(=O)N[C@@H](CC(C)C)C(=O)N[C@@H](C)C(=O)NCC(=O)NCC(=O)N1CCC[C@H]1C(=O)N[C@@H](CO)C(=O)N[C@@H](CO)C(=O)NCC(=O)N[C@@H](C)C(=O)NCC(=O)N[C@@H](CCC(N)=O)C(=O)N[C@@H](C)C(=O)N[C@@H](CCC(=O)O)C(=O)NCC(=O)N[C@@H](CCC(N)=O)C(=O)N[C@@H](C)C(=O)N1CCC[C@H]1C(=O)NCC(=O)N[C@@H](C)C(=O)N[C@@H](CO)C(=O)N[C@@H](Cc1c[nH]cn1)C(=O)N[C@@H](CC(C)C)C(=O)N[C@@H](CO)C(=O)N[C@H](C(=O)N[C@@H](C)C(=O)N[C@@H](CCC(N)=O)C(=O)N[C@H](C(=O)N[C@@H](CCC(N)=O)C(=O)N[C@@H](CCCNC(=N)N)C(=O)N[C@@H](CC(C)C)C(=O)N[C@@H](CO)C(=O)N[C@@H](C)C(=O)N[C@@H](CCC(=O)O)C(=O)N[C@@H](CC(C)C)C(=O)N[C@@H](Cc1c[nH]cn1)C(=O)N[C@@H](CCCCNC(=O)COCCOCCNC(=O)COCCOCCNC(=O)CC[C@H](NC(=O)CCCCCCCCCCCCCCCCCCC(=O)O)C(=O)O)C(=O)N[C@@H](CC(C)C)C(=O)N[C@@H](C)C(=O)N[C@H](C(=O)N[C@@H](CC(C)C)C(=O)N1CCC[C@H]1C(=O)N[C@@H](CCCNC(=N)N)C(=O)N[C@H](C(=O)N[C@@H](CCC(=O)O)C(=O)N[C@H](C(=O)NCC(=O)N[C@@H](CO)C(=O)NCC(=O)N[C@@H](CO)C(=O)N1CCC[C@H]1C(N)=O)[C@@H](C)O)[C@@H](C)O)[C@@H](C)O)[C@@H](C)O)[C@@H](C)O)[C@@H](C)CC` [Compound 150], for which the half-maximal effective concentration (EC50) was determined as 0.0653 nM in assay [1] (setting [4]); 0.0262 nM in assay [1] (setting [5]); 0.0107 nM in assay [2] (setting [6]); 0.00299 nM in assay [2] (setting [7]); 0.961 nM in assay [3] (setting [8]); 0.00761 nM in assay [3] (setting [9]).
Consider `CC[C@H](C)[C@H](NC(=O)[C@H](CCC(=O)O)NC(=O)[C@H](CCC(=O)O)NC(=O)[C@H](CC(C)C)NC(=O)[C@H](CC(C)C)NC(=O)[C@@H](NC(=O)[C@H](CO)NC(=O)[C@H](Cc1ccc(O)cc1)NC(=O)[C@H](CC(=O)O)NC(=O)[C@H](CO)NC(=O)[C@@H](NC(=O)[C@H](Cc1ccccc1)NC(=O)[C@@H](NC(=O)CNC(=O)[C@H](CCC(=O)O)NC(=O)C(C)(C)NC(=O)[C@@H](N)Cc1ccc(O)cc1)[C@@H](C)O)[C@@H](C)O)[C@@H](C)CC)C(=O)N[C@@H](C)C(=O)N[C@@H](C)C(=O)N[C@@H](CCCNC(=N)N)C(=O)N[C@@H](CCC(=O)O)C(=O)N[C@@H](Cc1ccccc1)C(=O)N[C@H](C(=O)N[C@@H](CCC(=O)O)C(=O)N[C@@H](Cc1c[nH]c2ccccc12)C(=O)N[C@@H](CC(C)C)C(=O)N[C@@H](CC(C)C)C(=O)N[C@@H](C)C(=O)NCC(=O)NCC(=O)N1CCC[C@H]1C(=O)N[C@@H](CO)C(=O)N[C@@H](CO)C(=O)NCC(=O)N[C@@H](C)C(=O)NCC(=O)N[C@@H](CCC(N)=O)C(=O)N[C@@H](C)C(=O)N1CCC[C@H]1C(=O)N[C@@H](CCC(=O)O)C(=O)N[C@@H](CCC(N)=O)C(=O)N[C@@H](C)C(=O)N1CCC[C@H]1C(=O)NCC(=O)N[C@@H](C)C(=O)N[C@@H](CO)C(=O)N[C@@H](Cc1c[nH]cn1)C(=O)N[C@@H](CC(C)C)C(=O)N[C@@H](CO)C(=O)N[C@H](C(=O)N[C@@H](C)C(=O)N[C@@H](CCC(N)=O)C(=O)N[C@H](C(=O)N[C@@H](CCC(N)=O)C(=O)N[C@@H](CCCNC(=N)N)C(=O)N[C@@H](CC(C)C)C(=O)N[C@@H](CO)C(=O)N[C@@H](C)C(=O)N[C@@H](CCC(=O)O)C(=O)N[C@@H](CC(C)C)C(=O)N[C@@H](Cc1c[nH]cn1)C(=O)N[C@@H](CCCCNC(=O)COCCOCCNC(=O)COCCOCCNC(=O)CC[C@H](NC(=O)CCCCCCCCCCCCCCCCCCC(=O)O)C(=O)O)C(=O)N[C@@H](CC(C)C)C(=O)N[C@@H](C)C(=O)N[C@H](C(=O)N[C@@H](CC(C)C)C(=O)N1CCC[C@H]1C(=O)N[C@@H](CCCNC(=N)N)C(=O)N[C@H](C(=O)N[C@@H](CCC(=O)O)C(=O)N[C@H](C(=O)NCC(=O)N[C@@H](CO)C(=O)NCC(=O)N[C@@H](CO)C(=O)N1CCC[C@H]1C(N)=O)[C@@H](C)O)[C@@H](C)O)[C@@H](C)O)[C@@H](C)O)[C@@H](C)O)[C@@H](C)CC` [Compound 151], for which the 50% effective concentration (EC50) in assay [1] (setting [4]) stood at 0.0726 nM; in assay [1] (setting [5]), 0.0277 nM; in assay [2] (setting [6]) it was 0.0139 nM; in assay [2] (setting [7]) it was 0.00399 nM; in assay [3] (setting [8]) it was 0.95 nM; in assay [3] (setting [9]), 0.00967 nM.
For `CC[C@H](C)[C@H](NC(=O)[C@H](CCC(=O)O)NC(=O)[C@H](CCC(=O)O)NC(=O)[C@H](CC(C)C)NC(=O)[C@H](CC(C)C)NC(=O)[C@@H](NC(=O)[C@H](CO)NC(=O)[C@H](Cc1ccc(O)cc1)NC(=O)[C@H](CC(=O)O)NC(=O)[C@H](CO)NC(=O)[C@@H](NC(=O)[C@H](Cc1ccccc1)NC(=O)[C@@H](NC(=O)CNC(=O)[C@H](CCC(=O)O)NC(=O)C(C)(C)NC(=O)[C@@H](N)Cc1ccc(O)cc1)[C@@H](C)O)[C@@H](C)O)[C@@H](C)CC)C(=O)N[C@@H](C)C(=O)N[C@@H](C)C(=O)N[C@@H](CCCNC(=N)N)C(=O)N[C@@H](CCC(=O)O)C(=O)N[C@@H](Cc1ccccc1)C(=O)N[C@H](C(=O)N[C@@H](CCC(=O)O)C(=O)N[C@@H](Cc1c[nH]c2ccccc12)C(=O)N[C@@H](CC(C)C)C(=O)N[C@@H](CC(C)C)C(=O)N[C@@H](C)C(=O)NCC(=O)NCC(=O)N1CCC[C@H]1C(=O)N[C@@H](CO)C(=O)N[C@@H](CO)C(=O)NCC(=O)N[C@@H](C)C(=O)NCC(=O)N[C@@H](CCC(N)=O)C(=O)N[C@@H](C)C(=O)N1CCC[C@H]1C(=O)NCC(=O)N[C@@H](CCC(=O)O)C(=O)N[C@@H](C)C(=O)N1CCC[C@H]1C(=O)NCC(=O)N[C@@H](C)C(=O)N[C@@H](CO)C(=O)N[C@@H](Cc1c[nH]cn1)C(=O)N[C@@H](CC(C)C)C(=O)N[C@@H](CO)C(=O)N[C@H](C(=O)N[C@@H](C)C(=O)N[C@@H](CCC(N)=O)C(=O)N[C@H](C(=O)N[C@@H](CCC(N)=O)C(=O)N[C@@H](CCCNC(=N)N)C(=O)N[C@@H](CC(C)C)C(=O)N[C@@H](CO)C(=O)N[C@@H](C)C(=O)N[C@@H](CCC(=O)O)C(=O)N[C@@H](CC(C)C)C(=O)N[C@@H](Cc1c[nH]cn1)C(=O)N[C@@H](CCCCNC(=O)COCCOCCNC(=O)COCCOCCNC(=O)CC[C@H](NC(=O)CCCCCCCCCCCCCCCCCCC(=O)O)C(=O)O)C(=O)N[C@@H](CC(C)C)C(=O)N[C@@H](C)C(=O)N[C@H](C(=O)N[C@@H](CC(C)C)C(=O)N1CCC[C@H]1C(=O)N[C@@H](CCCNC(=N)N)C(=O)N[C@H](C(=O)N[C@@H](CCC(=O)O)C(=O)N[C@H](C(=O)NCC(=O)N[C@@H](CO)C(=O)NCC(=O)N[C@@H](CO)C(=O)N1CCC[C@H]1C(N)=O)[C@@H](C)O)[C@@H](C)O)[C@@H](C)O)[C@@H](C)O)[C@@H](C)O)[C@@H](C)CC` [Compound 152], the EC50 worked out at 0.0674 nM in assay [1] (setting [4]); 0.0224 nM in assay [1] (setting [5]); 0.0114 nM in assay [2] (setting [6]); 0.00383 nM in assay [2] (setting [7]); 0.914 nM in assay [3] (setting [8]); 0.0085 nM in assay [3] (setting [9]).
